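Interpolation was linear, between the two tested concentrations surrounding the appropriate level; five concentrations were tested over 48 hours in 96-well plates. GI50 is the concentration that inhibits growth by half. TGI is the concentration that stops growth completely.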
Test system: MDA-MB-468 breast
Assay: growth of human tumour cells (NCI), 48 h

CCCCCCCCCCC(C[N+](C)(C)C/C=C/c1ccccc1)C(O)c1ccccc1 (stereo unspecified)
GI50: 1.37 µM | TGI: 3.06 µM

CC(=O)Nc1nc(SCc2ccccc2)c2ncn(C(C)=O)c2n1
GI50: 24.8 µM | TGI: > 100 µM

N=C1c2nc3n(c2C(=O)c2nc4n(c21)CCCC4)CCCC3
GI50: 8.95 µM | TGI: 53.4 µM

CCCc1ccc(S(=O)(=O)N[C@H]2CC[C@H]3[C@@H]4CCc5cc(O)ccc5[C@H]4CC[C@]23C)cc1
GI50: 2.32 µM | TGI: 9.51 µM

O=C(NC1CC1)c1ccc(-c2nc3ccc4[nH]ncc4c3c3c2CCCC3)cc1
GI50: 1.5 µM | TGI: 7.14 µM

O=C(Nc1ccc(-n2cc(-c3ccncc3)c(-c3ccc(O)c(Cl)c3)n2)cc1)c1cc(Cl)cc(Cl)c1
GI50: 3.17 µM | TGI: > 32.5 µM

CC(=O)Nc1cccc(-n2cnc3cc(-c4ccc(O)cc4)ccc32)c1
GI50: 0.259 µM | TGI: 0.65 µM

COc1ccc(/C=C\c2cc(OC)c(OC)c(OC)c2)cc1OC(=O)C(N)CCC(=O)O (stereo unspecified)
TGI: > 100 µM

O=C(Nc1ccc(-n2cc(-c3ccncc3)c(-c3ccc(Cl)c(O)c3)n2)cc1)Nc1cc(C(F)(F)F)cc(C(F)(F)F)c1
GI50: 1.79 µM | TGI: 5.04 µM

CCC1=C[C@@H]2CN(C1)Cc1c([nH]c3ccccc13)[C@@](C(=O)OC)(c1cc3c(cc1OC)N(C=O)[C@H]1[C@@](O)(C(=O)OC)[C@H](OC(C)=O)[C@]4(CC)[C@@H]5C[C@@H]5CN5CC[C@]31[C@@H]54)C2
GI50: < 0.000625 µM | TGI: > 6.25 µM

Fc1ccc(Oc2nccc(-c3c(-c4ccc(F)cc4)ncn3C3CCNCC3)n2)cc1
GI50: 4.7 µM | TGI: > 24 µM

COc1ccccc1N1CCN(C2=NN=C(c3cccc(Cl)c3)c3ccccc3C2)CC1
GI50: 0.382 µM | TGI: > 100 µM

CC([C@H]1CCC2C3CCC4C[C@@H](NC=O)CC[C@]4(C)C3CC[C@@]21C)N(C)C (stereo partly specified)
GI50: 1.42 µM | TGI: 3.73 µM

CCN(CC)CCOc1ccc(Nc2ncc3cc(-c4ccc(O)cc4)c(=O)n(C)c3n2)cc1
GI50: 3.9 µM | TGI: 24.2 µM

COc1cc(NC(=O)c2cc(OC)c3ccn(C)c3c2)cc2c1C[C@]1(C)CC[C@@H](O)C(C)(C)[C@H]1O2
GI50: 6.61 µM | TGI: > 100 µM

CCCCCCCCCNCCCCCCCCC
GI50: 1.77 µM | TGI: 3.22 µM

COc1c(C)c2c(c(O)c1C/C=C(\C)CCC(=O)OCCN1CCOCC1)C(=O)OC2
GI50: 0.421 µM | TGI: > 100 µM

COc1ccc(/C=C2\CN(C(=O)C(Cl)Cl)C/C(=C\c3ccc(OC)c(OC)c3)C2=O)cc1OC
GI50: 0.224 µM | TGI: 0.621 µM

O=C(N/N=C\c1ccc(F)cc1)c1ccc2nc(-c3ccc(Br)cc3)[nH]c2c1
GI50: 1.98 µM | TGI: 3.99 µM

Nc1ccc(C(=O)c2ccc(N)c(Br)c2)cc1Br
GI50: 0.248 µM | TGI: 0.709 µM

c1ccc2[nH]c(SSc3nc4ncncc4[nH]3)nc2c1
GI50: 0.232 µM | TGI: > 76.5 µM

Nc1nc(Nc2ccc3c(c2)CC[C@@H](N2CCCC2)CC3)nn1-c1cc2c(nn1)-c1ccccc1CCC2
GI50: 1.75 µM | TGI: 3.39 µM

Cc1ccccc1CN1CC2=C(CCN(Cc3ccccc3)C2=O)N2CCN=C12
GI50: 0.773 µM | TGI: 6.83 µM

c1ccc(C(=NNc2nc3ccccc3o2)c2ccccn2)nc1
GI50: 0.0285 µM | TGI: 0.196 µM

COc1ccc2c(c1)nc(N)c1c3cc(OC)c(OC)cc3cn21
GI50: 0.0339 µM | TGI: 12.5 µM

C=C1CC[C@@]2(C#N)[C@H]3[C@H](CC[C@@H]2C)[C@@H](C)C[C@@H](CC(C)(C)C#N)[C@H]13
GI50: 2.79 µM | TGI: 25.9 µM

C/C=C(\C)C(=O)N[C@H]1[C@@H](OC(C)=O)C[C@]2(C)C3CC[C@@]4(C)C(CC[C@@H]4C(C)N(C)C)C3CCC2[C@H]1O (stereo partly specified)
GI50: 2.02 µM | TGI: 9.67 µM

CCCCCNC(=O)[C@@H]1CCCN2C(=O)CC[C@H](NC(=O)[C@H](Cc3ccc(OP(=O)(O)O)cc3)NC(C)=O)C(=O)N12
GI50: > 25 µM | TGI: > 25 µM

O=[N+]([O-])c1ccc(-c2nc(N(CCO)CCO)c3ccccc3n2)o1
GI50: 0.0553 µM | TGI: 0.195 µM

CC1(C)NCCC[C@]2(C)[C@H]3C=CC4=C5C[C@](C)(CO)CC[C@]5(C)CC[C@@]4(C)[C@]3(C)CC[C@@H]12
GI50: 10.4 µM | TGI: 24 µM

Cc1cc(C)c(O)c(CNCCCCCCNCc2cc(C)cc(C)c2O)c1
GI50: 1.6 µM | TGI: 3.12 µM
